# Data reported in patent publication US20250109127A1, “METHODS OF USE OF PHENOXYPROPYLAMINE COMPOUNDS TO TREAT DEPRESSION” (Minerva Neurosciences, Inc., priority 2013, published 2025).
# “And” between values parts separate entries of the source, which are not always exact repeats. Equal entries are not always repeated. Structures can show the parent of a compound that is named as a salt.
# Test system: norepinephrin release in the rat prefrontal cortex
# Test: Microdialysis: norepinephrine release in prefrontal cortex after I.P. administration
# Format: in vivo
# Conditions: for NOREPINEPHRIN (% of respective basal), individual animal: 0.3 mg/kg I.P., c2-c9 = R#11,12,18,23,29,30,17,24; for NOREPINEPHRIN (% of respective basal), individual animal / Norepinephrin release, individual animals: hydrochloride; for Norepinephrin release, MEAN / Norepinephrin release, individual animals: 3 mg/kg IP; for Norepinephrin release, MEAN: n = 8; for Norepinephrin release, individual animals: per animal R#15,16,21,22,27,28,09,10
# Protocol: The aim of the study was to evaluate, using microdialysis, the effects of an intraperitoneal (I.P.) administration in rats of three different doses of SON-117 on dopamine and its metabolites, serotonin and its metabolite (5-HIAA), and norepinephrine levels in prefrontal cortex.
# Thirty-two adult male Wistar rats were used for the whole study (4 groups of eight animals planned for the study, Table 1).
# Surgery was performed on rats weighing about 300 g at the beginning of the experiments. Rats were anaesthetized with Ketamine (50 mg/kg) & Xylazine (15 mg/kg) by intramuscular administration. The animals were placed in a stereotaxic apparatus in the flat-skull position at a constant setting of −3.3 mm between ear bars and the incisor bar. The animals were treated with a local anesthesic (xylocaine 1%, Astra Zeneca) and an analgesic (Temgesic, from Schering Plough, 0.05 mg/kg, s.c.). A rostrocaudal midline incision was made with a lancet to expose the dorsal skull surface. The “stereotaxic zero” was defined by the Bregma in accordance with Paxinos and Watson's atlas (1986). A hole was drilled in the skull with a drill and the meninges were pierced with a sterile needle to implant a CMA12 guide cannula which later received the dialysis probe.
# Coordinates used for implanting guide cannula in prefrontal cortex from Bregma were anteroposterior 3.7 mm, mediolateral 0.8 mm, and dorsoventral −2 mm (top of the probe was at −5 mm). The guide cannula was fixed to the skull with two stainless steel screws (1.88 mm outside diameter) anchored. An application of dental cement was added. A plastic collar allowed each animal to be tethered to a Swivel assembly of the CMA 120 awake animal system. Following surgery, rats were kept in individual cages and allowed to recover for a minimum of 3-5 days before the experimentation. The rats were handled and put in plastic bowl for 10 min at least every day to habituate the animals to their new environment for the dialysis. An I.P. administration with saline was also performed every day.
# Dialysis probes (CMA12/3 mm, membrane, 20 kD cut-off, Carnegie Medicine, Stockholm, Sweden), were carefully washed before inserting into the guide cannula. The wash was performed with the artificial cerebrospinal fluid (aCSF) medium (NaCl 147 mM, KCl 2.7 mM, CaCl2 1.2 mM, MgCl2 0.85 mM) at room temperature. The dialysis system was then equilibrated at 20° C. at a perfusion rate of 1 μl/min with a Carnegie pump (CMA100). All catheters (FEP tubing, internal volume of 1.2 μl/10 cm, and tubing adaptors) used for microdialysis were treated in the same conditions.
# The probes duly prepared were inserted into the guide cannula and the CMA120 Swivel assembly secured to the animal using a plastic collar. Flow through the dialysis probe with aCSF was maintained at a rate of 1 μl/min during the whole experimentation. The first four fractions (corresponding to 2 hours) were discarded to avoid the effects of parenchymal disturbance and to ensure that an approximate steady-state level was reached. Fractions were then collected over a period of 8.5 h during which time the animals remained quiet. The dialysates were automatically collected with an autosampler (microfraction collector CMA 140, Carnegie Medicin) and stored at −80° C. until analysis. […] Perfusion was then maintained for 7 hours with aCSF. The dialysates (30 μl) were collected into 300 μl vials, transferred into dry ice and then kept frozen (−80° C.) until analysis. Frozen samples were shipped to a partner for analysis. At the end of the microdialysis study, a PBS with colored ink was perfused through the probe in order to visualize the dialyzed area.
# Catecholamine assay: Concentrations of dopamine, DOPAC, HVA, 5-HIAA, 5-HT, and norepinephrin were determined for each sample by HPLC coupled with electrochemical detection. […]
smiles,measurement,setting,value
"Cc1nnc(-c2cc3c(OC[C@@H](O)CN4CCC(c5ccc(Cl)c(Cl)c5)CC4)cccc3o2)o1 [SON-117, (S)-1-(4-(3,4-dichlorophenyl)piperidino)-3-(2-(5-methyl-1,3,4-oxadiazol-2-yl)benzo(b)furan-4-yloxy)-2-propanol hydrochloride]","NOREPINEPHRIN (% of respective basal), individual animal",T0-T30 min,93.23 % of respective basal and 109.66 % of respective basal and 94.50 % of respective basal and 91.56 % of respective basal and 103.16 % of respective basal and 122.80 % of respective basal and 169.48 % of respective basal and 88.04 % of respective basal
same,"NOREPINEPHRIN (% of respective basal), individual animal",T30-T1 h,104.42 % of respective basal and 107.28 % of respective basal and 98.29 % of respective basal and 99.12 % of respective basal and 108.78 % of respective basal and 113.81 % of respective basal and 113.33 % of respective basal and 88.14 % of respective basal
same,"NOREPINEPHRIN (% of respective basal), individual animal",T1 h 30-T2 h,99.20 % of respective basal and 86.76 % of respective basal and 108.98 % of respective basal and 92.71 % of respective basal and 104.84 % of respective basal and 66.21 % of respective basal and 122.80 % of respective basal and 84.63 % of respective basal
same,"NOREPINEPHRIN (% of respective basal), individual animal",T1 h-T1 h 30,86.88 % of respective basal and 98.78 % of respective basal and 112.17 % of respective basal and 98.26 % of respective basal and 98.75 % of respective basal and 106.99 % of respective basal and 111.81 % of respective basal and 90.76 % of respective basal
same,"NOREPINEPHRIN (% of respective basal), individual animal",T2 h 30-T3 h,84.23 % of respective basal and 104.60 % of respective basal and 128.99 % of respective basal and 92.07 % of respective basal and 101.47 % of respective basal and 118.46 % of respective basal and 126.06 % of respective basal and 98.73 % of respective basal
same,"NOREPINEPHRIN (% of respective basal), individual animal",T2 h-T2 h 30,76.65 % of respective basal and 101.56 % of respective basal and 126.15 % of respective basal and 88.09 % of respective basal and 101.06 % of respective basal and 105.86 % of respective basal and 113.08 % of respective basal and 89.61 % of respective basal
same,"NOREPINEPHRIN (% of respective basal), individual animal",T3 h 30-T4 h,100.21 % of respective basal and 138.06 % of respective basal and 105.65 % of respective basal and 106.80 % of respective basal and 135.47 % of respective basal and 201.02 % of respective basal and 113.60 % of respective basal
same,"NOREPINEPHRIN (% of respective basal), individual animal",T3 h-T3 h 30,120.36 % of respective basal and 139.04 % of respective basal and 95.95 % of respective basal and 93.13 % of respective basal and 129.61 % of respective basal and 137.11 % of respective basal and 99.05 % of respective basal
same,"NOREPINEPHRIN (% of respective basal), individual animal",T4 h 30-T5 h,91.48 % of respective basal and 153.66 % of respective basal and 179.53 % of respective basal and 95.60 % of respective basal and 107.83 % of respective basal and 118.17 % of respective basal and 146.73 % of respective basal and 113.45 % of respective basal
same,"NOREPINEPHRIN (% of respective basal), individual animal",T4 h-T4 h 30,88.77 % of respective basal and 125.81 % of respective basal and 155.70 % of respective basal and 105.70 % of respective basal and 109.87 % of respective basal and 112.18 % of respective basal and 148.00 % of respective basal and 108.96 % of respective basal
same,"NOREPINEPHRIN (% of respective basal), individual animal",T5 h 30-T6 h,91.57 % of respective basal and 160.34 % of respective basal and 198.08 % of respective basal and 89.28 % of respective basal and 123.68 % of respective basal and 111.49 % of respective basal and 183.96 % of respective basal and 124.88 % of respective basal
same,"NOREPINEPHRIN (% of respective basal), individual animal",T5 h-T5 h 30,62.74 % of respective basal and 157.36 % of respective basal and 184.76 % of respective basal and 91.16 % of respective basal and 116.17 % of respective basal and 125.90 % of respective basal and 153.13 % of respective basal and 108.22 % of respective basal
same,"NOREPINEPHRIN (% of respective basal), individual animal",T6 h-T6 h 30,107.74 % of respective basal and 153.11 % of respective basal and 204.06 % of respective basal and 115.67 % of respective basal and 145.69 % of respective basal and 126.68 % of respective basal
same,"Norepinephrin release, MEAN",T0-T30 min,95.03 % of respective basal
same,"Norepinephrin release, MEAN",T30-T1 h,97.36 % of respective basal
same,"Norepinephrin release, individual animals",T30-T1 h,88.36 % of respective basal and 115.03 % of respective basal and 81.23 % of respective basal and 99.91 % of respective basal and 84.13 % of respective basal and 101.13 % of respective basal and 112.87 % of respective basal and 96.25 % of respective basal
same,"Norepinephrin release, MEAN",T1 h 30-T2 h,89.60 % of respective basal
same,"Norepinephrin release, individual animals",T1 h 30-T2 h,82.12 % of respective basal and 112.19 % of respective basal and 79.22 % of respective basal and 97.76 % of respective basal and 65.77 % of respective basal and 100.10 % of respective basal and 89.95 % of respective basal and 89.72 % of respective basal
same,"Norepinephrin release, MEAN",T1 h-T1 h 30,107.89 % of respective basal
same,"Norepinephrin release, individual animals",T1 h-T1 h 30,172.07 % of respective basal and 112.74 % of respective basal and 81.36 % of respective basal and 103.59 % of respective basal and 89.22 % of respective basal and 99.07 % of respective basal and 110.12 % of respective basal and 94.94 % of respective basal
same,"Norepinephrin release, MEAN",T2 h 30-T3 h,89.71 % of respective basal
same,"Norepinephrin release, individual animals",T2 h 30-T3 h,86.59 % of respective basal and 101.34 % of respective basal and 74.62 % of respective basal and 92.57 % of respective basal and 76.53 % of respective basal and 86.90 % of respective basal and 101.62 % of respective basal and 97.13 % of respective basal
same,"Norepinephrin release, MEAN",T2 h-T2 h 30,89.42 % of respective basal
same,"Norepinephrin release, individual animals",T2 h-T2 h 30,76.71 % of respective basal and 108.71 % of respective basal and 69.68 % of respective basal and 89.57 % of respective basal and 80.18 % of respective basal and 97.07 % of respective basal and 98.74 % of respective basal and 94.71 % of respective basal
